{"source": "patent US20250179043A1", "about": "“PROCESSES FOR THE PREPARATION OF N-(1-METHYLCYCLOPROPYL)-2-(3-PYRIDINYL)-2H-INDAZOLE-4-CARBOXAMIDE AND INTERMEDIATES THEREOF” (FMC CORPORATION, priority 2022, published 2025)", "key": {"[1]": {"experiment": "Stable polymorph form screen (slurry experiments, final form by XRPD)", "format": "physicochemical", "settings": "for Final form (XRPD Result): start Form A + minor Form B", "description": "Slurry experiments were conducted to identify the stable form at various conditions. In these experiments, saturated solutions in various solvents containing excess undissolved solids (starting with Form A+minor Form B) were stirred for extended durations. Slurries at room temperature (RT) and 2-8° C. were typically conducted for approximately 2 weeks, while slurries at 72-73° C. were stirred for a shorter duration (1 day) to minimize the potential for decomposition. […] The results are shown in the table 12 where the time and temperatures are approximate."}, "[2]": {"experiment": "Form A and Form B interconversion (competitive) slurries, final form by XRPD", "format": "physicochemical", "description": "Relative thermodynamic stabilities of anhydrous/non-solvated Forms A and B were studied at 2-8° C., room temperature (RT) and at 71-72° C. via interconversion (competitive) slurries. In these slurries, a given solvent system was pre-saturated with compound 092 (Form A+minor Form B) at the stated temperature, and a portion of the liquid phase was filtered into a mixture of solids containing relatively equal amounts of Form A and Form B. Interconversion slurries at 2-8° C. and RT were allowed to stir for 22 days, while slurries at 71-72° C. stirred for shorter duration (2-4 days). […] The results are reported in table 13 below where: liquid phase for each slurry was pre-saturated using as-received Form A+minor Form B; solvent ratios are v/v; water activity values were calculated using UNIFAC calculator at RT; and times and temperatures are approximate."}}}
{"smiles": "CC1(NC(=O)c2cccc3nn(-c4cccnc4)cc23)CC1", "note": "[Compound 092, N-(1-methylcyclopropyl)-2-(3-pyridinyl)-2H-indazole 4-carboxamide]", "values": [{"measurement": "Final form (XRPD Result)", "setting": "[1]; slurry in DCM, RT, 13 d", "result": "Form A"}, {"measurement": "Final form (XRPD Result)", "setting": "[1]; slurry in DMF, RT, 13 d", "result": "Form A"}, {"measurement": "Final form (XRPD Result)", "setting": "[1]; slurry in EtOH, 72-73° C., 1 d", "result": "Form A"}, {"measurement": "Final form (XRPD Result)", "setting": "[1]; slurry in EtOH, RT, 13 d", "result": "Form A"}, {"measurement": "Final form (XRPD Result)", "setting": "[1]; slurry in IPA, RT, 13 d", "result": "Form A"}, {"measurement": "Final form (XRPD Result)", "setting": "[1]; slurry in MEK, 72-73° C., 1 d", "result": "Form A"}, {"measurement": "Final form (XRPD Result)", "setting": "[1]; slurry in MEK, RT, 13 d", "result": "Form A"}, {"measurement": "Final form (XRPD Result)", "setting": "[1]; slurry in MeOH, 2-8° C., 14 d", "result": "Form A"}, {"measurement": "Final form (XRPD Result)", "setting": "[1]; slurry in MeOH, RT, 13 d", "result": "Form A"}, {"measurement": "Final form (XRPD Result)", "setting": "[1]; slurry in acetone, RT, 13 d", "result": "Form A"}]}
{"smiles": "CC1(NC(=O)c2cccc3nn(-c4cccnc4)cc23)CC1", "note": "[Form A + Form B, N-(1-methylcyclopropyl)-2-(3-pyridinyl)-2H-indazole 4-carboxamide]", "values": [{"measurement": "Final form (XRPD Result)", "setting": "[2]; competitive slurry in EtOH, 71-72° C., 2 d", "result": "Form A"}, {"measurement": "Final form (XRPD Result)", "setting": "[2]; competitive slurry in EtOH, RT, 22 d", "result": "Form A"}, {"measurement": "Final form (XRPD Result)", "setting": "[2]; competitive slurry in NMP/water 80:20 (aw 0.39), 2-8° C., 22 d", "result": "Form A"}, {"measurement": "Final form (XRPD Result)", "setting": "[2]; competitive slurry in NMP/water 80:20 (aw 0.39), 71-72° C., 2 d", "result": "Form A"}, {"measurement": "Final form (XRPD Result)", "setting": "[2]; competitive slurry in NMP/water 80:20 (aw 0.39), RT, 22 d", "result": "Form A"}]}
{"smiles": "CC1(NC(=O)c2cccc3nn(-c4cccnc4)cc23)CC1", "note": "[Form A, N-(1-methylcyclopropyl)-2-(3-pyridinyl)-2H-indazole 4-carboxamide]", "values": [{"measurement": "Relative stability of polymorph forms", "setting": "[1]; between 2° C. and 73° C., from slurries", "result": "more stable than Form B"}, {"measurement": "Relative thermodynamic stability of Forms A and B", "setting": "[2]; between 2° C. and 72° C., from competitive slurries", "result": "thermodynamically stable form"}]}
